Patent publication US20230015949A1, “NEISSERIA TREATMENT USING CANNABINOIDS” (priority 2019, published 2023)
Converted amounts (≈) assume the structure as drawn. “Also recorded” adds a separate entry of the source. Like-named read-outs stand apart in the source and are kept apart here.

What was measured:
Neisseria gonorrhoeae = assay: Broth microdilution MIC assay, 30 isolates (Example 2); format: cell-based
Procedure: In this study, the in vitro spectrum of activity of CBD was determined against 30 isolates comprised of reference strains from the WHO, isolates from the CDC antibiotic resistance bank, and clinical isolates from the Micromyx (MMX) repository, with different resistance phenotypes. Assays were conducted following guidelines recommended by the Clinical and Laboratory Standards Institute (CLSI; 1, 2) with the exception that broth microdilution was used instead of agar dilution.
Stock solutions of all compounds were prepared on the day of testing using solvents recommended by CLSI. Stock solutions of all compounds were made at 101× the final testing concentration. CBD was supplied by Cerilliant (Round Rock, Tex.) as a 1 mg/mL methanolic solution which was stored at −20° C. after receipt. Prior to testing, using a 5 mL aliquot of the CBD methanolic solution, the methanol was dried off and the residual CBD was resuspended in 774 μL DMSO resulting in a 6.464 mg/mL solution.
The test organisms evaluated in this study consisted of Neisseria gonorrhoeae isolates from the Micromyx repository and reference isolates from the American Type Culture Collection (ATCC; Manassas, Va.), Centers for Disease Control and Prevention (CDC; Atlanta, Ga.) or the National Collection of Type Cultures (NCTC; Public Health England, Salisbury, UK). Upon initial receipt at Micromyx, the organisms were sub-cultured onto an appropriate agar medium.
(§1) Following incubation, colonies were harvested from these plates and cell suspensions prepared and frozen at −80° C. with a cryoprotectant. Prior to testing, N. gonorrhoeae isolates were streaked onto Chocolate Agar [Becton Dickinson, (BD), Sparks, Md.; Lot No. 922807]; Staphylococcus aureus ATCC 29213 tested for quality control (QC) purposes was streaked onto Trypticase Soy Agar with 5% Sheep Blood (TSA II; BD; Lot No. 9219399).
For N. gonorrhoeae, a modified medium described by the ATCC as capable of supporting the growth of N. gonorrhoeae (Neisseria peptone medium) was used for the broth microdilution MIC assay. This medium contained 15 g Oxoid Special Peptone (Lot No. 1280296; Oxoid, Hampshire, UK), 1 g corn starch (Lot No. AD-13344-14; Ward's Science; Rochester, N.Y.), 5 g NaCl (Lot No. 57897; VWR, Radnor, Pa.), 4 g K2HPO4 (Lot No. SLBT7061; Sigma), and 1 g KH2PO4 (Lot No. SLBC1921V; Sigma). After autoclaving, the medium was centrifuged at 5,000×g for 10 min, the supernatant was passed through a 0.45 μm filter, and IsoVitaleX supplement (Lot No. 8323954; BD) was added at 1% (v/v).
(§2) MIC values were determined using a broth microdilution procedure described by CLSI (1, 2). Automated liquid handlers (Multidrop 384, Labsystems, Helsinki, Finland; Biomek 2000 and Biomek FX, Beckman Coulter, Fullerton Calif.) were used to conduct serial dilutions and liquid transfers.
(§3) To prepare the drug mother plates, which would provide the serial drug dilutions for the replicate daughter plates, the wells of columns 2 through 12 of standard 96-well microdilution plates (Costar 3795) were filled with 150 μl of the designated diluent for each row of drug. The test articles and comparator compounds (300 μl at 100× the highest concentration to be tested) were dispensed into the appropriate wells in column 1. The Biomek 2000 was then used to make 2-fold serial dilutions in the mother plates from column 1 through column 11. The wells of column 12 contained no drug and served as the organism growth control wells for the assay.
(§4) The daughter plates were loaded with 190 μL per well of the appropriate test medium for the tested organism using the Multidrop 384. The daughter plates were completed on the Biomek FX instrument which transferred 2 μL of drug solution from each well of a mother plate to the corresponding well of each daughter plate in a single step. Daughter plates for the testing of anaerobes were allowed to pre-reduce in the Bactron II anaerobe chamber for 2 hr prior to inoculation.

[1] = tested on: Staphylococcus aureus ATCC 29213; assay: Broth microdilution MIC assay, quality control strain (Example 2); format: cell-based; conditions: ATCC29213, S. aureus ATCC 29213 (QC), CAMHB
Procedure: as §1
Cation-adjusted Mueller Hinton broth (CAMHB; BD; Lot No. 9019592) was used for MIC testing of S. aureus ATCC 29213 for QC purposes.
as §2, §3, §4
A standardized inoculum of each test organism was prepared per CLSI methods (1, 2). The inoculum for each organism was dispensed into sterile reservoirs divided by length (Beckman Coulter), and the Biomek 2000 was used to inoculate the plates. Daughter plates were placed on the Biomek 2000 work surface in reverse orientation so that inoculation took place from low to high drug concentration. Anaerobic organisms were inoculated by hand in the Bactron II anaerobic chamber. Bacterial plates were then inoculated with 10 μL of the inoculum resulting in a final cell density of approximately 5×10^5 CFU/mL.
Plates were stacked 3 to 4 high, covered with a lid on the top plate and placed in plastic bags. […] The MIC was read and recorded as the lowest concentration of drug that inhibited visible growth of the organism.

[2] = 30 isolates of N. gonorrhoeae, broth microdilution, MIC distribution
[3] = 30 isolates, broth dilution assay, MIC distribution (Table 6)

C=C(C)C1CCC(C)=CC1c1c(O)cc(CCCCC)cc1O (stereo not drawn) [CBD, 2-[3-methyl-6-(1-methylethenyl)-2-cyclohexen-1-yl]-5-pentyl-1,3-benzenediol]
Effect of the resistance phenotype of the isolate on activity (Neisseria gonorrhoeae; 30 isolates of N. gonorrhoeae with different resistance phenotypes): not affected by the resistance phenotype of the isolate; also recorded: independent of the resistance phenotype of the tested isolate
Number of isolates at MIC value 0.015 μg/mL (Neisseria gonorrhoeae; [2]): 0
Number of isolates at MIC value 0.03 μg/mL (Neisseria gonorrhoeae; [2]): 0
Number of isolates at MIC value 0.06 μg/mL (Neisseria gonorrhoeae; [2]): 0
Number of isolates at MIC value 0.5 μg/mL (Neisseria gonorrhoeae; [2]): 3
Number of isolates at MIC value 1 μg/mL (Neisseria gonorrhoeae; [2]): 10
Number of isolates at MIC value 2 μg/mL (Neisseria gonorrhoeae; [2]): 15
Number of isolates at MIC value 4 μg/mL (Neisseria gonorrhoeae; [2]): 0
Number of isolates at MIC value 8 μg/mL (Neisseria gonorrhoeae; [2]): 1
Number of isolates at MIC value >8 μg/mL (Neisseria gonorrhoeae; [2]): 1
Number of isolates at MIC value >32 μg/mL (Neisseria gonorrhoeae; [2]): 1
Number of isolates at MIC value […] (Neisseria gonorrhoeae; [2]): 0
Number of isolates at MIC 0.08 μg mL^−1 (Neisseria gonorrhoeae; [3]): 0
Number of isolates at MIC ≤0.004 μg mL^−1 (Neisseria gonorrhoeae; [3]): 0
MIC (Neisseria gonorrhoeae; Neisseria gonorrhoeae, ATCC49226, N. gonorrhoeae ATCC 49226 (QC), broth microdilution, read-out: MIC): 2 µg/mL (≈ 6.36 µM)
MIC (Neisseria gonorrhoeae; Neisseria gonorrhoeae, N. gonorrhoeae CDC 0165 (CIP-R, AZI MIC 1), broth microdilution, read-out: MIC): 8 µg/mL (≈ 25.4 µM)
MIC (Neisseria gonorrhoeae; Neisseria gonorrhoeae, N. gonorrhoeae CDC 0166 (CIP-R, AZI MIC 1), broth microdilution, read-out: MIC): 2 µg/mL (≈ 6.36 µM)
MIC (Neisseria gonorrhoeae; Neisseria gonorrhoeae, N. gonorrhoeae CDC 0167 (CIP-S, AZI MIC 8), broth microdilution, read-out: MIC): 1 µg/mL (≈ 3.18 µM)
MIC (Neisseria gonorrhoeae; Neisseria gonorrhoeae, N. gonorrhoeae CDC 0172 (CIP-R, AZI MIC 0.5), broth microdilution, read-out: MIC): 2 µg/mL (≈ 6.36 µM)
MIC (Neisseria gonorrhoeae; Neisseria gonorrhoeae, N. gonorrhoeae CDC 0175 (CIP-S, AZI MIC 16), broth microdilution, read-out: MIC): 2 µg/mL (≈ 6.36 µM)
MIC (Neisseria gonorrhoeae; Neisseria gonorrhoeae, N. gonorrhoeae CDC 0177 (CIP-S, AZI MIC 2), broth microdilution, read-out: MIC): 2 µg/mL (≈ 6.36 µM)
MIC (Neisseria gonorrhoeae; Neisseria gonorrhoeae, N. gonorrhoeae CDC 0181 (CIP-S, AZI MIC 256), broth microdilution, read-out: MIC): 1 µg/mL (≈ 3.18 µM)
MIC (Neisseria gonorrhoeae; Neisseria gonorrhoeae, N. gonorrhoeae CDC 0194 (CRO-NS, CIP-S, AZI MIC 0.5), broth microdilution, read-out: MIC): 2 µg/mL (≈ 6.36 µM)
MIC (Neisseria gonorrhoeae; Neisseria gonorrhoeae, N. gonorrhoeae MMX 6921 (CIP-R), broth microdilution, read-out: MIC): 1 µg/mL (≈ 3.18 µM)
MIC (Neisseria gonorrhoeae; Neisseria gonorrhoeae, N. gonorrhoeae MMX 6938 (CIP-S), broth microdilution, read-out: MIC): 2 µg/mL (≈ 6.36 µM)
MIC (Neisseria gonorrhoeae; Neisseria gonorrhoeae, N. gonorrhoeae MMX 10409 (CIP-R), broth microdilution, read-out: MIC): 2 µg/mL (≈ 6.36 µM)
MIC (Neisseria gonorrhoeae; Neisseria gonorrhoeae, N. gonorrhoeae MMX 10410 (CIP-S), broth microdilution, read-out: MIC): 2 µg/mL (≈ 6.36 µM)
MIC (Neisseria gonorrhoeae; Neisseria gonorrhoeae, N. gonorrhoeae MMX 10447 (CIP-S), broth microdilution, read-out: MIC): 1 µg/mL (≈ 3.18 µM)
MIC (Neisseria gonorrhoeae; Neisseria gonorrhoeae, N. gonorrhoeae MMX 10450 (CIP-S), broth microdilution, read-out: MIC): 0.5 µg/mL (≈ 1.59 µM)
MIC (Neisseria gonorrhoeae; Neisseria gonorrhoeae, N. gonorrhoeae MMX 10452 (CIP-R), broth microdilution, read-out: MIC): 2 µg/mL (≈ 6.36 µM)
MIC (Neisseria gonorrhoeae; Neisseria gonorrhoeae, N. gonorrhoeae MMX 10454 (CIP-R), broth microdilution, read-out: MIC): 1 µg/mL (≈ 3.18 µM)
MIC (Neisseria gonorrhoeae; Neisseria gonorrhoeae, NCTC13477, N. gonorrhoeae NCTC 13477 (WHO F; CIP-S, AZI MIC […]), broth microdilution, read-out: MIC): 0.5 µg/mL (≈ 1.59 µM)
MIC (Neisseria gonorrhoeae; Neisseria gonorrhoeae, NCTC13478, N. gonorrhoeae NCTC 13478 (WHO G; CIP-I, AZI MIC […]), broth microdilution, read-out: MIC): 2 µg/mL (≈ 6.36 µM)
MIC (Neisseria gonorrhoeae; Neisseria gonorrhoeae, NCTC13479, N. gonorrhoeae NCTC 13479 (WHO K; CIP-R, AZI MIC […]), broth microdilution, read-out: MIC): 2 µg/mL (≈ 6.36 µM)
MIC (Neisseria gonorrhoeae; Neisseria gonorrhoeae, NCTC13480, N. gonorrhoeae NCTC 13480 (WHO L; CIP-R, AZI MIC 0.5), broth microdilution, read-out: MIC): 0.5 µg/mL (≈ 1.59 µM)
MIC (Neisseria gonorrhoeae; Neisseria gonorrhoeae, NCTC13481, N. gonorrhoeae NCTC 13481 (WHO M; CIP-R, AZI MIC […]), broth microdilution, read-out: MIC): 1 µg/mL (≈ 3.18 µM)
MIC (Neisseria gonorrhoeae; Neisseria gonorrhoeae, NCTC13482, N. gonorrhoeae NCTC 13482 (WHO N; CIP-R, AZI MIC […]), broth microdilution, read-out: MIC): 2 µg/mL (≈ 6.36 µM)
MIC (Neisseria gonorrhoeae; Neisseria gonorrhoeae, NCTC13483, N. gonorrhoeae NCTC 13483 (WHO O; CIP-S, AZI MIC […]), broth microdilution, read-out: MIC): 2 µg/mL (≈ 6.36 µM)
MIC (Neisseria gonorrhoeae; Neisseria gonorrhoeae, NCTC13484, N. gonorrhoeae NCTC 13484 (WHO P; CIP-S, AZI MIC 4), broth microdilution, read-out: MIC): > 32 µg/mL
MIC (Neisseria gonorrhoeae; Neisseria gonorrhoeae, NCTC13817, N. gonorrhoeae NCTC 13817 (WHO U; CIP-S, AZI MIC 4), broth microdilution, read-out: MIC): 1 µg/mL (≈ 3.18 µM)
MIC (Neisseria gonorrhoeae; Neisseria gonorrhoeae, NCTC13818, N. gonorrhoeae NCTC 13818 (WHO V; CIP-R, AZI MIC >256), broth microdilution, read-out: MIC): 1 µg/mL (≈ 3.18 µM)
MIC (Neisseria gonorrhoeae; Neisseria gonorrhoeae, NCTC13819, N. gonorrhoeae NCTC 13819 (WHO W; CIP-R, AZI MIC 0.5), broth microdilution, read-out: MIC): 1 µg/mL (≈ 3.18 µM)
MIC (Neisseria gonorrhoeae; Neisseria gonorrhoeae, NCTC13820, N. gonorrhoeae NCTC 13820 (WHO X; CRO-NS, CIP-R, AZI MIC 0.5), broth microdilution, read-out: MIC): 2 µg/mL (≈ 6.36 µM)
MIC (Neisseria gonorrhoeae; Neisseria gonorrhoeae, NCTC13821, N. gonorrhoeae NCTC 13821 (WHO Y; CIP-R, AZI MIC 1), broth microdilution, read-out: MIC): 1 µg/mL (≈ 3.18 µM)
MIC50 (Neisseria gonorrhoeae; Neisseria gonorrhoeae, 30 isolates of N. gonorrhoeae, broth microdilution, read-out: MIC50): 2 µg/mL (≈ 6.36 µM)
MIC90 (Neisseria gonorrhoeae; Neisseria gonorrhoeae, 30 isolates of N. gonorrhoeae, broth microdilution, read-out: MIC90): 2 µg/mL (≈ 6.36 µM)
MIC (Neisseria gonorrhoeae; Neisseria gonorrhoeae, 30 isolates of N. gonorrhoeae, broth microdilution, read-out: MIC Mode): 2 µg/mL (≈ 6.36 µM)
MIC [1]: 0.5 µg/mL (≈ 1.59 µM)
